The values below come from patent US12077503B2, “Substituted cyclic amides and their use as herbicides” (FMC CORPORATION, priority 2015, dated 2024).

Holding throughout (experiment): Test G Post-Emergence Protocol
Holding throughout (format): in vivo

Test [1] has as its system barnyardgrass (Echinochloa crus-galli). The settings on record: Echinochloa crus-galli, post-emergence, 312 h; for pest or weed control at 15.625 g/ha: 15.625 g ai/ha, evaluated after 13 days (100=total damage to plant; 0=no damage to plant), read-out: Barnyardgrass damage rating; for pest or weed control at 62.5 g/ha: 62.5 g ai/ha, read-out: Barnyardgrass damage rating (100=total damage to plant; 0=no damage to plant); for pest or weed control at 62.5 g/ha / pest or weed control at 250 g/ha: evaluated after 13 days; for pest or weed control at 250 g/ha: 250 g ai/ha, read-out: damage to plant, Barnyardgrass (100=total damage to plant; 0=no damage to plant). In a few lines:
(§1)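 Post-emergence herbicidal damage, scored visually 0–100 at 13 days. Application at 15.625, 62.5 or 250 g/ha onto 8-day-old plants grown under glasshouse control.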

Test [2] relates to corn (Zea mays). Conditions: Zea mays, post-emergence, 312 h; for plant injury at 15.625 g/ha: 15.625 g ai/ha, evaluated after 13 days (100=total damage to plant; 0=no damage to plant), read-out: Corn damage rating; for plant injury at 62.5 g/ha: 62.5 g ai/ha, read-out: Corn damage rating (100=total damage to plant; 0=no damage to plant); for plant injury at 62.5 g/ha / plant injury at 250 g/ha: evaluated after 13 days; for plant injury at 250 g/ha: 250 g ai/ha, read-out: damage to plant, Corn (100=total damage to plant; 0=no damage to plant). The essentials: as §1

Test [3] has as its system giant foxtail (Setaria faberi). The settings on record: Setaria faberi, post-emergence, 312 h; for pest or weed control at 15.625 g/ha: 15.625 g ai/ha, evaluated after 13 days (100=total damage to plant; 0=no damage to plant), read-out: Foxtail, Giant damage rating; for pest or weed control at 62.5 g/ha: 62.5 g ai/ha, read-out: Foxtail, Giant damage rating (100=total damage to plant; 0=no damage to plant); for pest or weed control at 62.5 g/ha / pest or weed control at 250 g/ha: evaluated after 13 days; for pest or weed control at 250 g/ha: 250 g ai/ha, read-out: damage to plant, Foxtail, Giant (100=total damage to plant; 0=no damage to plant). The essentials: as §1

The test system of test [4] is ivy-leaved morning glory (Ipomoea hederacea). The settings on record: Ipomoea, post-emergence, 312 h; for pest or weed control at 15.625 g/ha: 15.625 g ai/ha, evaluated after 13 days (100=total damage to plant; 0=no damage to plant), read-out: Morningglory, Ivy-leaved damage rating; for pest or weed control at 62.5 g/ha: 62.5 g ai/ha, read-out: Morningglory, Ivy-leaved damage rating (100=total damage to plant; 0=no damage to plant); for pest or weed control at 62.5 g/ha / pest or weed control at 250 g/ha: evaluated after 13 days; for pest or weed control at 250 g/ha: 250 g ai/ha, read-out: damage to plant, Morningglory, Ivy-leaved (100=total damage to plant; 0=no damage to plant). In a few lines:
as §1

Test [5] concerns redroot pigweed (Amaranthus retroflexus). The settings on record: Amaranthus retroflexus, post-emergence, 312 h; for pest or weed control at 15.625 g/ha: 15.625 g ai/ha, evaluated after 13 days (100=total damage to plant; 0=no damage to plant), read-out: Pigweed, Redroot damage rating; for pest or weed control at 62.5 g/ha: 62.5 g ai/ha, read-out: Pigweed, Redroot damage rating (100=total damage to plant; 0=no damage to plant); for pest or weed control at 62.5 g/ha / pest or weed control at 250 g/ha: evaluated after 13 days; for pest or weed control at 250 g/ha: 250 g ai/ha, read-out: damage to plant, Pigweed, Redroot (100=total damage to plant; 0=no damage to plant). In a few lines: as §1

In test [6] the test system is velvetleaf (Abutilon theophrasti). The settings on record: Abutilon theophrasti, post-emergence, 312 h; for pest or weed control at 15.625 g/ha: 15.625 g ai/ha, evaluated after 13 days (100=total damage to plant; 0=no damage to plant), read-out: Velvetleaf damage rating; for pest or weed control at 62.5 g/ha: 62.5 g ai/ha, read-out: Velvetleaf damage rating (100=total damage to plant; 0=no damage to plant); for pest or weed control at 62.5 g/ha / pest or weed control at 250 g/ha: evaluated after 13 days; for pest or weed control at 250 g/ha: 250 g ai/ha, read-out: damage to plant, Velvetleaf (100=total damage to plant; 0=no damage to plant). The essentials:
as §1

On to `CN1C[C@@H](c2ccc(C(F)(F)F)cc2)[C@H](C(=O)Nc2ccccc2)C1=O` (racemic) [Compound 1404], for which, in test [1], the pest or weed control at 15.625 g/ha turned out to be 10%, the pest or weed control at 62.5 g/ha came to 20% and the pest or weed control at 250 g/ha came to 40%. Besides, in test [2], the plant injury at 15.625 g/ha was 20%, the plant injury at 62.5 g/ha was found to be 20% and the plant injury at 250 g/ha was found to be 40%. Further, in test [3], the pest or weed control at 15.625 g/ha amounted to 0%, the pest or weed control at 62.5 g/ha amounted to 50% and the pest or weed control at 250 g/ha was 70%. Further, in test [4], the pest or weed control at 15.625 g/ha was 0%, the pest or weed control at 62.5 g/ha is 10% and the pest or weed control at 250 g/ha came to 30%. In addition, in test [5], the pest or weed control at 15.625 g/ha was determined as 20%, the pest or weed control at 62.5 g/ha was 40% and the pest or weed control at 250 g/ha came to 30%. Besides, in test [6], the pest or weed control at 15.625 g/ha turned out to be 10%, the pest or weed control at 62.5 g/ha was determined as 20% and the pest or weed control at 250 g/ha was 20%.
As for `CN1C[C@H](c2ccc3c(c2)CCO3)[C@@H](C(=O)Nc2cccc(F)c2F)C1=O` (racemic) [Compound 1499], in test [1], the pest or weed control at 15.625 g/ha turned out to be 50%, the pest or weed control at 62.5 g/ha came to 60% and the pest or weed control at 250 g/ha stood at 60%. Further, in test [2], the plant injury at 15.625 g/ha amounted to 10%, the plant injury at 62.5 g/ha worked out at 0% and the plant injury at 250 g/ha was 80%. Besides, in test [3], the pest or weed control at 15.625 g/ha is 60%, the pest or weed control at 62.5 g/ha worked out at 60% and the pest or weed control at 250 g/ha came to 70%. Further, in test [4], the pest or weed control at 15.625 g/ha stood at 20%, the pest or weed control at 62.5 g/ha is 0% and the pest or weed control at 250 g/ha is 40%. In test [5], the pest or weed control at 15.625 g/ha stood at 0%, the pest or weed control at 62.5 g/ha came out at 0% and the pest or weed control at 250 g/ha is 0%. Besides, in test [6], the pest or weed control at 15.625 g/ha was determined as 0%, the pest or weed control at 62.5 g/ha was found to be 0% and the pest or weed control at 250 g/ha worked out at 20%.
Take `CN1C[C@H](c2ccc3occc3c2)[C@@H](C(=O)Nc2cccc(F)c2F)C1=O` (racemic) [Compound 1500]: in test [1], the pest or weed control at 15.625 g/ha was 10%, the pest or weed control at 62.5 g/ha is 60% and the pest or weed control at 250 g/ha worked out at 60%. Besides, in test [2], the plant injury at 15.625 g/ha was 10%, the plant injury at 62.5 g/ha came to 10% and the plant injury at 250 g/ha is 60%. Further, in test [3], the pest or weed control at 15.625 g/ha came out at 40%, the pest or weed control at 62.5 g/ha was 60% and the pest or weed control at 250 g/ha worked out at 60%. For the same compound, in test [4], the pest or weed control at 15.625 g/ha was found to be 0%, the pest or weed control at 62.5 g/ha is 0% and the pest or weed control at 250 g/ha came out at 10%. In test [5], the pest or weed control at 15.625 g/ha was 0%, the pest or weed control at 62.5 g/ha was 0% and the pest or weed control at 250 g/ha is 0%. Besides, in test [6], the pest or weed control at 15.625 g/ha stood at 0%, the pest or weed control at 62.5 g/ha was determined as 0% and the pest or weed control at 250 g/ha came out at 20%.
Turning to `Cc1c(NC(=O)[C@@H]2C(=O)N(C)C[C@H]2c2ccc(C(F)(F)F)cc2)ccc(F)c1F` (racemic) [Compound 1502], the pest or weed control at 15.625 g/ha in test [1] worked out at 20%; in test [3], 60%; in test [4] it was 0%; in test [5], 20%; in test [6], 0%. The pest or weed control at 62.5 g/ha is 60% in test [1]; 80% in test [3]; 0% in test [4]; 30% in test [5]; 10% in test [6]. Besides, the pest or weed control at 250 g/ha in test [1] came to 70%; in test [3], 80%; in test [4], 20%; in test [5], 80%; in test [6] it was 40%. In test [2], the plant injury at 15.625 g/ha amounted to 0%. Moreover, the plant injury at 62.5 g/ha in test [2] turned out to be 30%. Besides, in test [2], the plant injury at 250 g/ha came to 60%.
In the case of `Cc1ccncc1NC(=O)[C@@H]1C(=O)N(C)C[C@H]1c1ccc(C(F)(F)F)cc1` (racemic) [Compound 1505], in test [1], the pest or weed control at 15.625 g/ha came to 0%, the pest or weed control at 62.5 g/ha was determined as 0% and the pest or weed control at 250 g/ha stood at 20%. In addition, in test [2], the plant injury at 15.625 g/ha is 0%, the plant injury at 62.5 g/ha came to 10% and the plant injury at 250 g/ha was 10%. For the same compound, in test [3], the pest or weed control at 15.625 g/ha was 0%, the pest or weed control at 62.5 g/ha was determined as 0% and the pest or weed control at 250 g/ha worked out at 30%. For the same compound, in test [4], the pest or weed control at 15.625 g/ha turned out to be 0%, the pest or weed control at 62.5 g/ha came to 0% and the pest or weed control at 250 g/ha amounted to 10%. Besides, in test [5], the pest or weed control at 15.625 g/ha was 0%, the pest or weed control at 62.5 g/ha stood at 0% and the pest or weed control at 250 g/ha was determined as 0%. In test [6], the pest or weed control at 15.625 g/ha came to 0%, the pest or weed control at 62.5 g/ha is 0% and the pest or weed control at 250 g/ha is 0%.
For `CN1C[C@@H](c2ccc(C(F)(F)F)cc2)[C@H](C(=O)Nc2cc(C(F)(F)F)nn2C)C1=O` (racemic) [Compound 1510], in test [1], the pest or weed control at 15.625 g/ha is 0%, the pest or weed control at 62.5 g/ha came to 0% and the pest or weed control at 250 g/ha was determined as 0%. In addition, in test [2], the plant injury at 15.625 g/ha was 0%, the plant injury at 62.5 g/ha was found to be 0% and the plant injury at 250 g/ha amounted to 10%. Besides, in test [3], the pest or weed control at 15.625 g/ha worked out at 0%, the pest or weed control at 62.5 g/ha was found to be 0% and the pest or weed control at 250 g/ha amounted to 0%. In test [4], the pest or weed control at 15.625 g/ha was 0%, the pest or weed control at 62.5 g/ha is 0% and the pest or weed control at 250 g/ha amounted to 0%. Also, in test [5], the pest or weed control at 15.625 g/ha worked out at 0%, the pest or weed control at 62.5 g/ha amounted to 0% and the pest or weed control at 250 g/ha came to 20%. Moreover, in test [6], the pest or weed control at 15.625 g/ha came out at 0%, the pest or weed control at 62.5 g/ha stood at 0% and the pest or weed control at 250 g/ha turned out to be 0%.
`CN1C[C@@H](c2ccc(C(F)(F)F)cc2)[C@H](C(=O)Nc2ccno2)C1=O` (racemic) [Compound 1513]: the pest or weed control at 15.625 g/ha in test [1], in test [3], in test [4], in test [5] and in test [6] was 0% each time. Moreover, the pest or weed control at 62.5 g/ha in test [1], in test [3], in test [4], in test [5] and in test [6] was 0% in each case. Moreover, the pest or weed control at 250 g/ha in test [1], in test [3], in test [4], in test [5] and in test [6] was 0% each time. Further, in test [2], the plant injury at 15.625 g/ha amounted to 0%. Further, the plant injury at 62.5 g/ha in test [2] was 0%. Besides, the plant injury at 250 g/ha in test [2] came to 0%.
